{
  "source": "patent US4201725A",
  "about": "“Secondary amines” (priority 1974, dated 1980)",
  "key": {"[1]": {"tested_on": "neuroleptic-induced catatonia", "experiment": "Suppression of neuroleptic (prochlorperazine)-induced catatonia (curative treatment)", "format": "in vivo, rat (male, OFA strain)", "details": "5 mg/kg vs 80 mg/kg amantadine", "protocol": "Batches of 5 male rats of the OFA strain were given 12.5 mg/kg of prochlorperazine by intraperitoneal route. Fifty-five minutes later, an oral dose in aqueous solution of the compound to be studied was administered to all the animals with the exception of the control group. The progress of the catatonia was noted following the same scale as that used in the tests described above."}, "[2]": {"tested_on": "reserpine-induced catatonia", "experiment": "Suppression of reserpine-induced catatonia (curative treatment)", "format": "in vivo, rat (male, OFA strain)", "details": "2.5 and 5 mg/kg oral vs 80 mg/kg amantadine", "protocol": "Batches of 5 male rats of the OFA strain, weighing 150 to 200 g were given 5 mg/kg of reserpine by intraperitoneal route. One hour and 45 minutes later, namely when the animals were in a state of catatonia, an aqueous dose of the compound to be studied was administered by oral route to all the animals with the exception of the control group.\nThe progress of the catatonia was then noted following the scale used in the tests described hereabove.\nThe maximum score was thus 5 per batch which means that all the animals of the batch were considered to be still in a state of catatonia."}, "[3]": {"tested_on": "reserpine-induced catatonia", "experiment": "Inhibition of reserpine-induced catatonia (preventive, oral compound 30 min before reserpine)", "format": "in vivo, rat (male, OFA strain)", "details": "rat, in vivo", "protocol": "After sufficient doses of reserpine have been administered to the rat, a series of symptoms occur, more particularly ptosis, catatonia and a drop in central temperature. These symptoms are caused by the depletion of the intragranular reserve pool of biogenetic amines at the synaptic terminals.\nAn oral dose of the compound to be studied in aqueous solution was administered to batches of 10 male rats of the OFA strain weighing about 150 to 200 g. Thirty minutes later a dose of 5 mg/kg of reserpine was given by intraperitoneal route. Three hours after the injection of reserpine, the animals were suspended by the four paws to a horizontally stretched wire fixed at 15 cm from the ground. The catatonia animals were those which maintained the position so given for at least 30 seconds. […] The maximum score was therefore 10 per batch. An identical trial was undertaken with control animals which received reserpine but none of the compounds being studied."}, "[4]": {"experiment": "Spasmolytic activity in vivo", "details": "at antiparkinson doses, well below the toxic dose"}, "[5]": {"details": "SPERBER et al., J. Amer. Chem. Soc., 71, 3352 (1949); cited from earlier work"}, "catalepsy": {"tested_on": "catalepsy", "experiment": "Prochlorperazine-induced catalepsy (crossing of homolateral paws)", "format": "in vivo, rat", "details": "5 mg/kg oral 30 min before prochlorperazine i.p.; 3 h after injection", "protocol": "Additional trials were carried out on rats with Compound 1 and amantadine. These trails involved catalepsy as evidenced by the crossing of the animal's homolateral paws."}, "[6]": {"tested_on": "cholinergic effects of tremorine", "experiment": "Anti-tremorine test in vivo", "set-up": "species or system mice (male, OF1 strain)", "protocol": "When injected into mice, tremorine produces peripheral effects i.e. weeping, sweating, salivation and diarrhoea and central effects i.e. tremor and akinesia. Such effects are due to an increase in the amount of intracerebral acetylcholine and serotonine.\n[…] Thirty minutes later a dose of 10 mg/kg of tremorine was injected by intraperitoneal route and, at different times after this injection, note was taken of the cholinergic effects on each animal in accordance with the following scale:"}, "[7]": {"details": "SPERBER et al., J. Amer. Chem. Soc., 71, 3352 (1949); cited from earlier work", "remark": "listed apart in the source"}, "[8]": {"tested_on": "arterial pressure and nictitating membrane (norepinephrine)", "experiment": "Influence on peripheral noradrenergic phenomena (norepinephrine, anaesthetized cat)", "details": "for Contractile reaction of the nictitating membrane without electric stimulation: at 0 mg/kg: 0; for Contractile reaction of the nictitating membrane with electric stimulation: at 0 mg/kg: Compound 1 17, amantadine 20; for Increase in arterial pressure after injection of norepinephrine: at 0 mg/kg: Compound 1 26, amantadine 28", "description": "A cat, anaesthetized with pentobarbital, received a sufficient dose of norepinephrine to increase arterial pressure but not sufficient to cause contraction of the nictitating membrane. Arterial pressure was measured at the carotid immediately after administration of the dose of norepinephrine."}, "[9]": {"tested_on": "isolated duodenum of the rat", "experiment": "MAGNUS test: cholinolytic/spasmolytic activity on acetylcholine spasm in vitro", "excerpt": "This test consists in determining the dose of acetylcholine which, when added to the bath, provokes spasm of the isolated duodenum of the rat. The next step consists in determining the dose of the compound under study which, when added to the bath 30 seconds before the acetylcholine, reduces the spasm."}},
  "note": "“Also recorded” adds a separate entry of the source. Where two headings read alike, the source gives them in different places.",
  "data": [
    {"smiles": "CCCC(N)(CCC)CCC", "note": "[Compound 1]", "values": [
      {"measurement": "action against neuroleptic-induced catatonia (in words)", "setting": "[1]", "value": "acts against neuroleptic-induced catatonia more rapidly than does a dose of 80 mg/kg of amantadine"},
      {"measurement": "suppression of reserpine-induced catatonia (in words)", "setting": "[2]", "value": "suppresses reserpine-induced catatonia more rapidly than a dose of 80 mg/kg of amantadine"},
      {"measurement": "activity in pharmacological trials (in words)", "setting": "[3]", "value": "marked degree of activity"},
      {"measurement": "spasmolytic activity in vivo (in words)", "setting": "[4]", "value": "non-existent"},
      {"measurement": "toxicity (in words)", "setting": "[5]", "value": "more toxic than the corresponding trialkylethylamines"},
      {"measurement": "inhibition of the catalepsy", "setting": "catalepsy", "value": "complete inhibition of the catalepsy"},
      {"measurement": "antitremorine properties (in words)", "setting": "[6]; 5 mg/kg Compound 1, 40 mg/kg amantadine", "value": "devoid of antitremorine properties"},
      {"measurement": "central cholinergic effects (normal and provoked tremor)", "setting": "[6]; 5 mg/kg oral, identical to the peripheral score of 4", "value": "Identical results"},
      {"measurement": "cholinolytic properties in vivo (in words)", "setting": "[6]; therapeutic doses", "value": "absence of cholinolytic properties"},
      {"measurement": "spasmolytic activity (in words)", "setting": "[7]", "value": "less spasmolytic"},
      {"measurement": "potentiation of norepinephrine / peripheral adrenergic effects (in words)", "setting": "[8]; cat, i.v.", "value": "does not potentiate the effects either of exogenous norepinephrine or of endogenous norepinephrine"},
      {"measurement": "Contractile reaction of the nictitating membrane without electric stimulation", "setting": "[8]; cumulative dose 0.1 mg/kg i.v.", "value": 0, "unit": "mm"},
      {"measurement": "Contractile reaction of the nictitating membrane with electric stimulation", "setting": "[8]; cumulative dose 0.1 mg/kg i.v.", "value": 15, "unit": "mm"},
      {"measurement": "Increase in arterial pressure after injection of norepinephrine", "setting": "[8]; cumulative dose 0.1 mg/kg i.v.", "value": 18, "unit": "mm Hg"},
      {"measurement": "Contractile reaction of the nictitating membrane without electric stimulation", "setting": "[8]; cumulative dose 1 mg/kg i.v.", "value": 0, "unit": "mm"},
      {"measurement": "Contractile reaction of the nictitating membrane with electric stimulation", "setting": "[8]; cumulative dose 1 mg/kg i.v.", "value": 16, "unit": "mm"},
      {"measurement": "Increase in arterial pressure after injection of norepinephrine", "setting": "[8]; cumulative dose 1 mg/kg i.v.", "value": 25, "unit": "mm Hg"},
      {"measurement": "Contractile reaction of the nictitating membrane without electric stimulation", "setting": "[8]; cumulative dose 3 mg/kg i.v.", "value": 0, "unit": "mm"},
      {"measurement": "Contractile reaction of the nictitating membrane with electric stimulation", "setting": "[8]; cumulative dose 3 mg/kg i.v.", "value": 17, "unit": "mm"},
      {"measurement": "Increase in arterial pressure after injection of norepinephrine", "setting": "[8]; cumulative dose 3 mg/kg i.v.", "value": 29, "unit": "mm Hg"},
      {"measurement": "Contractile reaction of the nictitating membrane without electric stimulation", "setting": "[8]; cumulative dose 5 mg/kg i.v.", "value": 0, "unit": "mm"},
      {"measurement": "Contractile reaction of the nictitating membrane with electric stimulation", "setting": "[8]; cumulative dose 5 mg/kg i.v.", "value": 16, "unit": "mm"},
      {"measurement": "Increase in arterial pressure after injection of norepinephrine", "setting": "[8]; cumulative dose 5 mg/kg i.v.", "value": 25, "unit": "mm Hg"},
      {"measurement": "Contractile reaction of the nictitating membrane without electric stimulation", "setting": "[8]; cumulative dose 10 mg/kg i.v.", "value": 0, "unit": "mm"},
      {"measurement": "Contractile reaction of the nictitating membrane with electric stimulation", "setting": "[8]; cumulative dose 10 mg/kg i.v.", "value": 12, "unit": "mm"},
      {"measurement": "Increase in arterial pressure after injection of norepinephrine", "setting": "[8]; cumulative dose 10 mg/kg i.v.", "value": 22, "unit": "mm Hg"},
      {"measurement": "spasmolytic / cholinolytic activity in vitro (in words)", "setting": "[9]", "value": "virtually non-existent in comparison with that of atropine; also recorded: extremely weak cholinolytic action"},
      {"measurement": "spasmolytic / cholinolytic activity in vitro (in words)", "setting": "[9]; listed as tri-n-propylmethylamine", "value": "very weak, in fact practically non-existent"}
    ]}
  ]
}
